Assay results: PubChem BioAssay AID248 (DTP/NCI, 2004)
Toxic doses and inconclusive results are not listed. No stated cut-off is given here; in the data, active means T/C of 150% or more; inactive means T/C below 125%.

Tested on: L1210 leukemia ip in BDF1 mice, survival T/C
Assay: NCI In Vivo Anticancer Drug Screen. Data for tumor model L1210 Leukemia (intraperitoneal) in B6D2F1 (BDF1) mice
Conditions: endpoint: mean survival time, higher = longer survival
Method in brief: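 Antitumor effect is assessed in tumor-bearing animals. Survival in the compound arm is compared with a vehicle-dosed control arm and expressed as their quotient.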

[1] = dose: 100.0 mg/kg/injection, schedule: Q04DX002 (ip), vehicle: Klucel (hydroxypropylcellulose) (HPC)
[2] = dose: 100.0 mg/kg/injection, schedule: Q01DX009 (ip), vehicle: saline with Tween-80
[3] = dose: 100.0 mg/kg/injection, schedule: Q04DX003 (ip), vehicle: saline with Tween-80
[4] = dose: 200.0 mg/kg/injection, schedule: Q01DX009 (ip), vehicle: saline with Tween-80
[5] = dose: 200.0 mg/kg/injection, schedule: Q04DX003 (ip), vehicle: saline with Tween-80
[6] = dose: 400.0 mg/kg/injection, schedule: Q01DX009 (ip), vehicle: saline with Tween-80
[7] = dose: 400.0 mg/kg/injection, schedule: Q04DX003 (ip), vehicle: saline with Tween-80
[8] = dose: 100.0 mg/kg/injection, schedule: Q01DX009 (ip), vehicle: Klucel (hydroxypropylcellulose) (HPC)
[9] = dose: 100.0 mg/kg/injection, schedule: Q04DX003 (ip), vehicle: Klucel (hydroxypropylcellulose) (HPC)
[10] = dose: 200.0 mg/kg/injection, schedule: Q01DX009 (ip), vehicle: Klucel (hydroxypropylcellulose) (HPC)
[11] = dose: 200.0 mg/kg/injection, schedule: Q04DX003 (ip), vehicle: Klucel (hydroxypropylcellulose) (HPC)
[12] = dose: 400.0 mg/kg/injection, schedule: Q04DX003 (ip), vehicle: Klucel (hydroxypropylcellulose) (HPC)
[13] = dose: 400.0 mg/kg/injection, schedule: Q01DX009 (ip), vehicle: Klucel (hydroxypropylcellulose) (HPC)
[14] = dose: 100.0 mg/kg/injection, schedule: Q01DX001 (ip), vehicle: Klucel (hydroxypropylcellulose) (HPC)
[15] = dose: 100.0 mg/kg/injection, schedule: Q01DX001 (ip), vehicle: saline
[16] = dose: 200.0 mg/kg/injection, schedule: Q01DX001 (ip), vehicle: saline

Measured: T/C

CCN(CC)c1ccc(/C=N/NC(=S)NC23CC4CC(CC(C4)C2)C3)cc1
inactive: dose: 75.0 mg/kg/injection, schedule: Q01DX001 (ip), vehicle: saline 100 % of control | dose: 150.0 mg/kg/injection, schedule: Q01DX001 (ip), vehicle: saline 101 % of control | dose: 300.0 mg/kg/injection, schedule: Q01DX001 (ip), vehicle: saline 92 % of control

Brc1cccc[n+]1-c1cccc(-c2cccc(-[n+]3ccccc3Br)c2)c1
inactive: dose: 9.38 mg/kg/injection, schedule: Q01DX001 (ip), vehicle: other 100 % of control | dose: 18.75 mg/kg/injection, schedule: Q01DX001 (ip), vehicle: other 101 % of control

O=C(O)C1CC(Br)C(Br)CC1C(=O)Nc1ccc(Cl)c(Cl)c1 (configuration not stated)
inactive: [1] 115 % of control | dose: 200.0 mg/kg/injection, schedule: Q04DX002 (ip), vehicle: Klucel (hydroxypropylcellulose) (HPC) 121 % of control

COC(OC)c1cc(=O)[nH]c(NC(=O)C(Cl)Cl)n1
inactive: dose: 25.0 mg/kg/injection, schedule: Q01DX009 (ip), vehicle: saline with Tween-80 90 % of control | dose: 50.0 mg/kg/injection, schedule: Q01DX009 (ip), vehicle: saline with Tween-80 107 % of control | [2] 106 % of control | [3] 98 % of control | [4] 89 % of control | [5] 104 % of control | [6] 93 % of control | [7] 94 % of control

CCCCCC(C)NCCOC(=O)c1ccc(N)cc1 (configuration not stated)
inactive: dose: 75.0 mg/kg/injection, schedule: Q01DX001 (ip), vehicle: other 98 % of control

O=S1(=O)CC2(N3CCCC3)C3c4ccccc4C(c4ccccc43)C21 (configuration not stated)
inactive: dose: 25.0 mg/kg/injection, schedule: Q04DX002 (ip), vehicle: Klucel (hydroxypropylcellulose) (HPC) 102 % of control | dose: 50.0 mg/kg/injection, schedule: Q04DX002 (ip), vehicle: Klucel (hydroxypropylcellulose) (HPC) 102 % of control | [1] 117 % of control

S=c1[nH]c2ccccc2c2ccccc12
inactive: dose: 50.0 mg/kg/injection, schedule: Q01DX009 (ip), vehicle: Klucel (hydroxypropylcellulose) (HPC) 96 % of control | [8] 105 % of control | [9] 97 % of control | [10] 97 % of control | [11] 90 % of control | [12] 95 % of control

Cc1cccc(C)c1NC(=O)Nc1cccc(O)c1
inactive: [8] 101 % of control | [10] 108 % of control | [13] 103 % of control

CC1(C)Cc2cccc(C(O)(CCN3CCCCC3)c3ccccc3)c2O1 (configuration not stated)
inactive: dose: 20.0 mg/kg/injection, schedule: Q01DX001 (ip), vehicle: Klucel (hydroxypropylcellulose) (HPC) 96 % of control | dose: 40.0 mg/kg/injection, schedule: Q01DX001 (ip), vehicle: Klucel (hydroxypropylcellulose) (HPC) 98 % of control | dose: 80.0 mg/kg/injection, schedule: Q01DX001 (ip), vehicle: Klucel (hydroxypropylcellulose) (HPC) 92 % of control | [14] 91 % of control

COc1ccc(-n2c(=S)[nH]c3ccc(C)cc3c2=O)cc1
inactive: [3] 92 % of control | [5] 87 % of control | [7] 90 % of control

CC(C)=CCC/C(C)=C\CC1=C(O)c2ccccc2C(=O)C1=O
inactive: dose: 100.0 mg/kg/injection, schedule: Q01DX001 (ip), vehicle: water 96 % of control | dose: 100.0 mg/kg/injection, schedule: Q04DX003 (ip), vehicle: acetone 102 % of control | dose: 200.0 mg/kg/injection, schedule: Q01DX001 (ip), vehicle: water 100 % of control | dose: 200.0 mg/kg/injection, schedule: Q04DX003 (ip), vehicle: acetone 94 % of control

O=C(Nc1ccn(C2OC(CO)C(O)C2O)c(=O)n1)c1ccccc1 (configuration not stated)
inactive: [15] 97 % of control | [16] 97 % of control | dose: 400.0 mg/kg/injection, schedule: Q01DX001 (ip), vehicle: saline 86 % of control

O=C(CBr)OCC1CC2C=CC1C2 (configuration not stated)
inactive: dose: 13.3 mg/kg/injection, schedule: Q01DX Z (ip), vehicle: methylcellulose (MC) 93 % of control | dose: 20.0 mg/kg/injection, schedule: Q01DX Z (ip), vehicle: methylcellulose (MC) 96 % of control | dose: 30.0 mg/kg/injection, schedule: Q01DX Z (ip), vehicle: methylcellulose (MC) 90 % of control

O=[As](O)(O)CCc1ccccc1
inactive: dose: 12.5 mg/kg/injection, schedule: Q04DX003 (ip), vehicle: Klucel (hydroxypropylcellulose) (HPC) 101 % of control | dose: 25.0 mg/kg/injection, schedule: Q04DX003 (ip), vehicle: Klucel (hydroxypropylcellulose) (HPC) 108 % of control

COc1ccc(S(=O)(=O)N/N=C/C(=O)O)cc1
inactive: dose: 6.25 mg/kg/injection, schedule: Q01DX009 (ip), vehicle: saline with Tween-80 109 % of control | dose: 12.5 mg/kg/injection, schedule: Q01DX009 (ip), vehicle: saline with Tween-80 117 % of control

O=C(Nc1ccc([N+](=O)[O-])cc1)C(Cl)(Cl)Cl
inactive: dose: 50.0 mg/kg/injection, schedule: Q01DX001 (ip), vehicle: Klucel (hydroxypropylcellulose) (HPC) 94 % of control | [14] 95 % of control | dose: 200.0 mg/kg/injection, schedule: Q01DX001 (ip), vehicle: Klucel (hydroxypropylcellulose) (HPC) 97 % of control

O=C(O)c1cc(C(=O)O)c(C(=O)O)cc1C(=O)O
inactive: [2] 96 % of control | [4] 91 % of control | [6] 94 % of control

Cc1cc([N+](=O)[O-])ccc1S(N)(=O)=O
inactive: [9] 105 % of control | [11] 105 % of control | [12] 109 % of control

COc1cccc2ccccc12
inactive: [3] 96 % of control | [5] 94 % of control

CCOC(OCC)C(O)CNc1ccc([N+](=O)[O-])cc1[N+](=O)[O-] (configuration not stated)
inactive: [9] 98 % of control | [11] 101 % of control | [12] 103 % of control

ClC1=C(Cl)C(Cl)(Cl)C(Cl)=C1Cl
inactive: dose: 0.25 mg/kg/injection, schedule: Q04DX002 (ip), vehicle: Klucel (hydroxypropylcellulose) (HPC) 103 % of control | dose: 0.5 mg/kg/injection, schedule: Q04DX002 (ip), vehicle: Klucel (hydroxypropylcellulose) (HPC) 107 % of control | dose: 1.0 mg/kg/injection, schedule: Q04DX002 (ip), vehicle: Klucel (hydroxypropylcellulose) (HPC) 88 % of control

COc1cc(C(=O)Nc2ccccc2F)cc(OC)c1OC
inactive: [8] 92 % of control | [10] 94 % of control | [13] 97 % of control

O=C(O)C1=CCC=CC1C(=O)O (configuration not stated)
inactive: dose: 25.0 mg/kg/injection, schedule: Q01DX009 (ip), vehicle: saline 93 % of control | dose: 50.0 mg/kg/injection, schedule: Q01DX009 (ip), vehicle: saline 95 % of control | dose: 100.0 mg/kg/injection, schedule: Q01DX009 (ip), vehicle: saline 98 % of control | dose: 100.0 mg/kg/injection, schedule: Q04DX003 (ip), vehicle: saline 95 % of control | dose: 200.0 mg/kg/injection, schedule: Q04DX003 (ip), vehicle: saline 93 % of control

CC(=O)N/N=C/c1ccc2c(c1)CCC2
inactive: [3] 97 % of control | [5] 103 % of control

CC1CC(C)(C)[N+](C)=C(CC(O)(c2ccccc2)c2ccccc2)O1 (configuration not stated)
inactive: dose: 6.25 mg/kg/injection, schedule: Q04DX003 (ip), vehicle: saline sonified 95 % of control | dose: 12.5 mg/kg/injection, schedule: Q04DX003 (ip), vehicle: saline sonified 104 % of control | dose: 25.0 mg/kg/injection, schedule: Q04DX003 (ip), vehicle: saline sonified 92 % of control

CC(C)=CCCC(O)C1CCC2C3CCC4CCCCC4(C)C3CCC12C (configuration not stated)
inactive: dose: 100.0 mg/kg/injection, schedule: Q04DX002 (ip), vehicle: DMSO 96 % of control | dose: 200.0 mg/kg/injection, schedule: Q04DX002 (ip), vehicle: DMSO 96 % of control | dose: 400.0 mg/kg/injection, schedule: Q04DX002 (ip), vehicle: DMSO 92 % of control

CCOP(=S)(NN=C1CCCCC1)OCC
inactive: [15] 104 % of control | [16] 101 % of control

Cc1c(Cl)ccc2c(C(=O)NN)cc(-c3ccc(Cl)cc3)nc12
inactive: dose: 100.0 mg/kg/injection, schedule: Q01DX001 (ip), vehicle: saline with Tween-80 92 % of control | dose: 200.0 mg/kg/injection, schedule: Q01DX001 (ip), vehicle: saline with Tween-80 97 % of control | dose: 400.0 mg/kg/injection, schedule: Q01DX001 (ip), vehicle: saline with Tween-80 97 % of control
